In US20250011307A1, “CRYSTALLINE FORMS OF BIARYL YAP/TAZ-TEAD PROTEIN-PROTEIN INTERACTION INHIBITORS” (Novartis AG, priority 2021, published 2025):

Legend:
Format in all cases: physicochemical
[1] = Xenon light stress test of bulk (HPLC degradation products, color, XRPD); set-up: key to CL color: A: No change; B: Slight discoloration; C: Medium discoloration; D: Strong discoloration; settings: Compound A forms, Xenon light (1200 kLuxh, 25° C.)
[2] = Hygroscopicity (loss on drying by TGA and XRPD, as is and after storage at 92% / 80% RH); settings: Compound A forms; for Loss on drying by TGA [%]: TGA temperature per cell: Modification A 110° C., amorphous 119° C., 4-hydroxybenzoate 200° C.
[3] = Solubility after equilibration at 25° C. for 24 h, with final pH and XRPD of solid residues; settings: Compound A forms
[4] = Solid state bulk stability stress test (HPLC degradation products, color, XRPD); set-up: key to CL color: A: No change; B: Slight discoloration; C: Medium discoloration; D: Strong discoloration; settings: Compound A forms
[5] = Excipient compatibility stress test (HPLC degradation products, color); set-up: key to CL color: A: No change; B: Slight discoloration; C: Medium discoloration; D: Strong discoloration; settings: Compound A forms
[6] = 2 weeks 50° C./75% RH, 1% in mixture 1
[7] = 2 weeks 50° C./75% RH, 1% in mixture 2
[8] = 2 weeks 50° C./75% RH, 1% in mixture 3
[9] = 2 weeks 50° C./75% RH, HGC capsule powder
[10] = 2 weeks 50° C./75% RH, HPMC capsule powder
[11] = 2 weeks 70° C./11% RH, 1% in mixture 1
[12] = 2 weeks 70° C./11% RH, 1% in mixture 2
[13] = 2 weeks 70° C./11% RH, 1% in mixture 3
[14] = 2 weeks 70° C./11% RH, HGC capsule powder
[15] = 2 weeks 70° C./11% RH, HPMC capsule powder
[16] = 2 weeks 70° C./75% RH, 1% in mixture 1
[17] = 2 weeks 70° C./75% RH, 1% in mixture 2
[18] = 2 weeks 70° C./75% RH, 1% in mixture 3
[19] = 2 weeks 70° C./75% RH, HPC capsule powder
[20] = 2 weeks 70° C./75% RH, HPMC capsule powder

## CNC(=O)c1cnc(OCCO)c(F)c1-c1c(Cl)c(F)cc2c1C[C@](c1ccccc1)([C@@H]1CCCN1)O2 [Compound A Free form Modification A, 4-((2S,4S)-5-Chloro-6-fluoro-2-phenyl-2-((S)-pyrrolidin-2-yl)-2,3-dihydrobenzofuran-4-yl)-5-fluoro-6-(2-hydroxyethoxy)-N-methylnicotinamide]
[1]; amber vial
  Bulk amber vial (XRPD): No change
  CL color: A
  DP[%] degradation products, Bulk amber vial (HPLC): 1.0%
[1]; clear vial
  Bulk clear vial (XPRD): No change
  CL color: B
  DP[%] degradation products, Bulk clear vial (HPLC): 4.1%
[2]; After 1 day at 80% RH
  XRPD: No change
  Loss on drying by TGA [%]: 0.7% (110° C.)
[2]; After 1 day at 92% RH
  XRPD: No change
  Loss on drying by TGA [%]: 1.0% (110° C.)
[2]; Hygroscopicity, before RH storage
  Loss on drying by TGA [%]: 0.4% (110° C.)
[3]; FaSSIF V2 pH 6.5
  final pH: (8.07)
[3]; FaSSIF V2 pH 6.5, target concentration 20 mg/10 mL
  Sol. (solubility): ~2, mg/mL
[3]; FeSSIF V2 pH 5.8
  final pH: (5.98)
[3]; FeSSIF V2 pH 5.8, target concentration 20 mg/10 mL
  Sol. (solubility): >2, mg/mL
[3]; SGF pH 2.0
  final pH: (2.39)
[3]; SGF pH 2.0, target concentration 20 mg/10 mL
  Sol. (solubility): >2, mg/mL
[3]; Water
  final pH: (9.12)
[3]; Water, target concentration 20 mg/10 mL
  Sol. (solubility): 0.27, mg/mL
[3]; pH 1.2, 100 mM HCl
  final pH: (1.16)
[3]; pH 1.2, 100 mM HCl, target concentration 20 mg/10 mL
  Sol. (solubility): >2, mg/mL
[3]; pH 3.0, 50 mM citrate buffer
  final pH: (3.10)
[3]; pH 3.0, 50 mM citrate buffer, target concentration 20 mg/10 mL
  Sol. (solubility): >2, mg/mL
[3]; pH 4.7, 50 mM acetate buffer
  final pH: (4.86)
[3]; pH 4.7, 50 mM acetate buffer, target concentration 20 mg/10 mL
  Sol. (solubility): >2, mg/mL
[3]; pH 6.8, 50 mM phosphate buffer
  final pH: (6.95)
[3]; pH 6.8, 50 mM phosphate buffer with 50 mM Na taurocholate
  final pH: (6.91)
[3]; pH 6.8, 50 mM phosphate buffer with 50 mM Na taurocholate, target concentration 20 mg/10 mL
  Sol. (solubility): >2, mg/mL
[3]; pH 6.8, 50 mM phosphate buffer, target concentration 20 mg/10 mL
  Sol. (solubility): >2, mg/mL
[4]; 2 weeks 50° C./75% RH
  Bulk (XRPD): No change
  CL color: A
  DP[%] degradation products, Bulk (HPLC): 1.3%
[4]; 2 weeks 80° C., 11% RH
  Bulk (XRPD): No change
  CL color: A
  DP[%] degradation products, Bulk (HPLC): 1.4%
[4]; 2 weeks 80° C./75% RH
  Bulk (XRPD): gel
  DP[%] degradation products, Bulk (HPLC): 12.6%
[5]; [6]
  CL color: A
  DP[%] degradation products: 1.4%
[5]; [7]
  CL color: A
  DP[%] degradation products: 2.5%
[5]; [8]
  CL color: A
  DP[%] degradation products: 1.4%
[5]; [9]
  CL color: A
  DP[%] degradation products: 1.2%
[5]; [10]
  CL color: A
  DP[%] degradation products: 1.7%
[5]; [11]
  CL color: A
  DP[%] degradation products: 1.3%
[5]; [12]
  CL color: A
  DP[%] degradation products: 1.2%
[5]; [13]
  CL color: A
  DP[%] degradation products: 1.1%
[5]; [14]
  CL color: A
  DP[%] degradation products: 1.2%
[5]; [15]
  CL color: A
  DP[%] degradation products: 1.5%
[5]; [16]
  CL color: gel
  DP[%] degradation products: 6.1%
[5]; [17]
  CL color: gel
  DP[%] degradation products: 7.8%
[5]; [18]
  CL color: gel
  DP[%] degradation products: 11.8%
[5]; [19]
  CL color: gel
  DP[%] degradation products: 3.3%
[5]; [20]
  CL color: gel
  DP[%] degradation products: 6.6%
